Reference: patent US20050171037A1, “Therapeutic combinations” (Agouron Pharmaceuticals, Inc., priority 2004, published 2005)
Where two headings read alike, the source gives them in different places.

Assays:
[1] = Compound B pharmacokinetics after oral administration of a single dose alone (fasting) and with ritonavir (fed), human subjects; assay type: in vivo; settings: geometric mean
[2] = as above; assay type: in vivo; settings: for half-life / Cmax / AUC / Tmax: plasma; for half-life / Ae % (drug recovered unchanged in urine, percent of administered dose): arithmetic mean; for half-life: read-out: t1/2 (terminal phase plasma half-life) (converted); for AUC: read-out: AUC (area under the concentration-time curve from time 0 to infinity); for Tmax: median
Description: Nos. 11/008325, filed Dec. 8, 2004, and 60/591,351, filed Jul. 26, 2004, all of which are hereby incorporated by reference for this purpose. A total of 21 human subjects were administered a single 300 mg, 900 mg, 1800 mg, or 3600 mg dose of a spray-dried composition comprising 90 wt % amorphous Compound B and 10 wt % hydroxypropyl methyl cellulose acetate succinate (HPMCAS) under fasting conditions. […] Each plasma sample was analyzed for the presence of Compound B and the following pharmacokinetic parameters for Compound B were determined for each subject: area under the concentration-time curve from time 0 extrapolated to infinity (AUC), maximum observed plasma concentration (Cmax), time to first occurrence of Cmax (Tmax), terminal phase plasma half-life (t %), CL/F=apparent oral clearance, and cumulative amount of drug recovered unchanged in the urine expressed as a percentage of administered dose (Ae %).

[3] = po, 300 mg, single oral dose 300 mg (active dose 270 mg), alone, fasting
[4] = po, 300 mg, single oral dose 300 mg (active dose 270 mg), alone, fasting, geometric mean
[5] = po, 900 mg, single oral dose 900 mg (active dose 810 mg), alone, fasting
[6] = po, 900 mg, single oral dose 900 mg (active dose 810 mg), alone, fasting, geometric mean
[7] = po, 1800 mg, single oral dose 1800 mg (active dose 1620 mg), alone, fasting
[8] = po, 1800 mg, single oral dose 1800 mg (active dose 1620 mg), alone, fasting, geometric mean
[9] = po, 3600 mg, single oral dose 3600 mg (active dose 3240 mg), alone, fasting
[10] = po, 3600 mg, single oral dose 3600 mg (active dose 3240 mg), alone, fasting, geometric mean
[11] = po, single oral dose 300 mg (active 270 mg) + ritonavir (100 mg every 12 hours for 3 doses), fed
[12] = po, single oral dose 450 mg (active 405 mg) + ritonavir (100 mg every 12 hours for 3 doses), fed

## Cc1c(O)cccc1C(=O)N[C@@H](Cc1ccccc1)[C@H](O)C(=O)N1CC(F)(F)C(C)(C)[C@H]1C(=O)NCC(F)(F)F [Compound B, 4,4-difluoro-1-{(2S,3S)-2-hydroxy-3-[(3-hydroxy-2-methylbenzoyl)amino]-4-phenylbutanoyl}-3,3-dimethyl-N-(2,2,2-trifluoroethyl)-L-prolinamide]
[1]; plasma, po, single oral dose 300 mg (active 270 mg) + ritonavir (100 mg every 12 hours for 3 doses)
  Cmax: 3100 ng/mL
[1]; single oral dose 300 mg (active 270 mg) + ritonavir (100 mg every 12 hours for 3 doses)
  CL/F (apparent oral clearance): 7.75 L/h
[1]; single oral dose 450 mg (active 405 mg) + ritonavir (100 mg every 12 hours for 3 doses)
  CL/F (apparent oral clearance): 7.84 L/h
[2]; [3]
  half-life: 166 min
  Tmax: 0.5 h
[2]; [4]
  Cmax: 1530 ng/mL
  AUC: 6110 ng·h/mL
[2]; [5]
  half-life: 195 min
  Tmax: 2 h
[2]; [6]
  Cmax: 4610 ng/mL
  AUC: 28200 ng·h/mL
[2]; [7]
  half-life: 216 min
  Tmax: 3.02 h
[2]; [8]
  Cmax: 8670 ng/mL
  AUC: 74500 ng·h/mL
[2]; [9]
  half-life: 249 min
  Tmax: 4 h
[2]; [10]
  Cmax: 14500 ng/mL
  AUC: 164000 ng·h/mL
[2]; [11]
  half-life: 512 min
  Tmax: 4 h
[2]; [12]
  half-life: 618 min
  Tmax: 4.02 h
[2]; po, single oral dose 450 mg (active 405 mg) + ritonavir (100 mg every 12 hours for 3 doses), fed, geometric mean
  Cmax: 3830 ng/mL
[2]; single oral dose 300 mg (active 270 mg) + ritonavir (100 mg every 12 hours for 3 doses), fed, geometric mean
  AUC: 34800 ng·h/mL
[2]; single oral dose 300 mg (active 270 mg) + ritonavir (100 mg every 12 hours for 3 doses), fed
  Ae % (drug recovered unchanged in urine, percent of administered dose): 17.7%
[2]; single oral dose 300 mg (active dose 270 mg), alone, fasting
  Ae % (drug recovered unchanged in urine, percent of administered dose): 3.67%
[2]; single oral dose 300 mg (active dose 270 mg), alone, fasting, geometric mean
  CL/F (apparent oral clearance): 44.2 L/h
[2]; single oral dose 450 mg (active 405 mg) + ritonavir (100 mg every 12 hours for 3 doses), fed
  Ae % (drug recovered unchanged in urine, percent of administered dose): 17.6%
[2]; single oral dose 450 mg (active 405 mg) + ritonavir (100 mg every 12 hours for 3 doses), fed, geometric mean
  AUC (area under the concentration-time curve from time 0 to infinity): 51.6 µg·h/mL
[2]; single oral dose 900 mg (active dose 810 mg), alone, fasting
  Ae % (drug recovered unchanged in urine, percent of administered dose): 4.89%
[2]; single oral dose 900 mg (active dose 810 mg), alone, fasting, geometric mean
  CL/F (apparent oral clearance): 28.7 L/h
[2]; single oral dose 1800 mg (active dose 1620 mg), alone, fasting
  Ae % (drug recovered unchanged in urine, percent of administered dose): 10.4%
[2]; single oral dose 1800 mg (active dose 1620 mg), alone, fasting, geometric mean
  CL/F (apparent oral clearance): 21.7 L/h
[2]; single oral dose 3600 mg (active dose 3240 mg), alone, fasting
  Ae % (drug recovered unchanged in urine, percent of administered dose): 11.8%
[2]; single oral dose 3600 mg (active dose 3240 mg), alone, fasting, geometric mean
  CL/F (apparent oral clearance): 19.7 L/h
